Measured values: patent publication US20250230193A1, “CYCLIC COMPOUND HAVING SELECTIVE KRAS INHIBITORY EFFECT ON HRAS AND NRAS” (CHUGAI SEIYAKU KABUSHIKI KAISHA, priority 2022, published 2025)
Like-named read-outs stand apart in the source and are kept apart here. *1 amine or outer side, *2 acyl side, *3 side chain or, on linkers, in order; H or OH if unused. Where a SMILES comes first, the peptide text is derived from it. Bridges are numbered along the chain shown (N, C = ends). [ ]: non-standard residue; d: D form. The star is where a group is joined. X6 = CC(C)(C)CCN([C@@H](Cc1ccc(C(F)(F)F)cc1)C(=O)[*:2])[*:1]; hPhe(3-Cl-4-CF3) = N[C@@H](CCc1ccc(C(F)(F)F)c(Cl)c1)C(=O)O; X5 = CCCN([C@H](C(=O)[*:2])C1CCCC1)[*:1]; NMeGly(cPent) = CN[C@H](C(=O)O)C1CCCC1; NMeD = CN[C@@H](CC(=O)O)C(=O)O; NMeL = CN[C@@H](CC(C)C)C(=O)O; Morpholide = C1CN(*)CCO1; NMeA = CN[C@@H](C)C(=O)O; Ac5c = NC1(C(=O)O)CCCC1; Aze = O=C(O)[C@@H]1CCN1; Sar = CNCC(=O)O

Key:
[1] = target: GDP-bound NRAS wild-type protein (Homo sapiens, UniProt P01111); test: Binding to NRAS by surface plasmon resonance (SPR), Single Cycle Kinetics; conditions: SPR; for NRAS/KRAS (ratio of KD value with respect to NRAS to KD value with respect to KRAS) / NRAS/KRAS (ratio of KD value for NRAS to KD value for KRAS): GDP-bound NRAS wild-type vs GDP-bound KRAS wild-type
Chain of GDP-bound NRAS wild-type protein (P01111 whole entry): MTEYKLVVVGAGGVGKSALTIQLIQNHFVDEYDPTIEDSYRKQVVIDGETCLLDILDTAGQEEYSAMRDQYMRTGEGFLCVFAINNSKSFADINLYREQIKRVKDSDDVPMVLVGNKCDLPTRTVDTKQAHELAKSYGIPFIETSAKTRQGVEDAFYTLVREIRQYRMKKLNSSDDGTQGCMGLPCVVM

[2] = target: GDP-bound HRAS wild-type protein (Homo sapiens, UniProt P01112); test: Binding to HRAS by surface plasmon resonance (SPR), Single Cycle Kinetics; conditions: SPR; for HRAS/KRAS (ratio of KD value with respect to HRAS to KD value with respect to KRAS) / HRAS/KRAS (ratio of KD value for HRAS to KD value for KRAS): GDP-bound HRAS wild-type vs GDP-bound KRAS wild-type
Chain of GDP-bound HRAS wild-type protein (P01112 whole entry): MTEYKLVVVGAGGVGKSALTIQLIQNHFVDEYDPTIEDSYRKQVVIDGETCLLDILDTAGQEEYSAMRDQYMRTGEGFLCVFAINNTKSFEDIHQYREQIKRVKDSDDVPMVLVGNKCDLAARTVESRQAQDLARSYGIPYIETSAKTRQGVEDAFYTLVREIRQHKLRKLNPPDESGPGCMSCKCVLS

[3] = tested on: human lung cancer strain NCI-H441
[4] = read-out: NCI-H441 IC50, NCI-H441 cells, 4 days, CellTiter-Glo

Structure (SMILES) | IC50 [3] [nM] | NRAS/KRAS (ratio of KD value for NRAS to KD value for KRAS) ([1]; KD ratio) | HRAS/KRAS (ratio of KD value for HRAS to KD value for KRAS) ([2]; KD ratio) | further results
CC[C@H](C)[C@@H]1NC(=O)[C@H](CC2CCCC2)N(C)C(=O)C[C@@H](C(=O)N(C)C)N(C)C(=O)[C@H](C2CCCC2)N(C)C(=O)C2(CCC2)NC(=O)[C@@H]2[C@@H](OCC(F)F)CCN2C(=O)[C@H](CCc2cc(F)c(C(F)(F)F)c(F)c2)NC(=O)CN(C)C(=O)[C@H](Cc2ccc(C)cc2)N2CC/C=C\C[C@H](C2=O)N(C)C(=O)CN(C)C1=O [PP1536] | 24.8 | – | – | NRAS/KRAS (ratio of KD value for GDP-bound NRAS wild-type protein to KD value for KRAS) ([1]; KD ratio class): A (a compound having 10 or more and less than 20 is denoted as A); HRAS/KRAS (ratio of KD value for GDP-bound HRAS wild-type protein to KD value for KRAS) ([2]; KD ratio class): B (a compound having 3 or more and less than 10 is denoted as B)
CCC[C@H]1C(=O)N[C@@H]([C@@H](C)CC)C(=O)N(C2CC2)CC(=O)N(C)[C@H]2C/C=C\CCN(C2=O)[C@@H](Cc2ccc(C)cc2)C(=O)N(C)CC(=O)N[C@@H](CCc2ccc(C(F)(F)F)c(OC)c2)C(=O)N2C[C@H](OCC)C[C@H]2C(=O)N(C)C2(CCC2)C(=O)N(C)[C@@H](C2CCCC2)C(=O)N(C)[C@H](C(=O)N2CCCCC2)CC(=O)N1C [PP3096, (2S,8S,12R,14S,20S,23S,27S,30S,36S,38Z)-20-cyclopentyl-32-cyclopropyl-12-ethoxy-8-[2-[3-methoxy-4-(trifluoromethyl)phenyl]ethyl]-4,16,19,22,26,35-hexamethyl-30-[(1S)-1-methylpropyl]-23-(piperidine-1-carbonyl)-27-propyl-2-(p-tolylmethyl)spiro[1,4,7,10,16,19,22,26,29,32,35-undecazatricyclo[34.5.1.0^10,14]dotetracont-38-ene-17,1′-cyclobutane]-3,6,9,15,18,21,25,28,31,34,42-undecone] | 35.8 | – | – | NRAS/KRAS (ratio of KD value with respect to GDP-bound NRAS wild-type protein to KD value with respect to KRAS) ([1]; GDP-bound wild-type proteins): A (a compound having 10 or more and less than 20 is denoted as A); HRAS/KRAS (ratio of KD value with respect to GDP-bound HRAS wild-type protein to KD value with respect to KRAS) ([2]; GDP-bound wild-type proteins): A (a compound having 10 or more and less than 20 is denoted as A)
CCO[C@@H]1C[C@H]2C(=O)NC3(CCC3)C(=O)N(C)[C@@H](C3CCCC3)C(=O)N(C)[C@H](C(=O)N(C)CC)CC(=O)N(C)[C@H]3CCCCCc4ccc(cc4)C[C@@H](C(=O)N(C)CC(=O)N[C@@H](CCc4cc(F)c(C(F)(F)F)c(F)c4)C(=O)N2C1)N1CC/C=C\C[C@@H](C1=O)N(C)C(=O)CN(C)C(=O)[C@H]([C@@H](C)CC)NC3=O [PP2117] | 28.9 | – | – | NRAS/KRAS (ratio of KD value with respect to NRAS to KD value with respect to KRAS) [1]: A (a compound having 10 or more and less than 20 is denoted as A); HRAS/KRAS (ratio of KD value with respect to HRAS to KD value with respect to KRAS) [2]: A (a compound having 10 or more and less than 20 is denoted as A)
CC[C@H](C)[C@@H]1NC(=O)[C@H](CC)N(C)C(=O)C[C@@H](C(=O)N(C)CC)N(C)C(=O)[C@H](C2CCCC2)N(C)C(=O)C2(CC(C)(C)C2)NC(=O)[C@@H]2C[C@H](C)CN2C(=O)[C@H](CCc2ccc(C(F)(F)F)c(OC)c2)NC(=O)CN(C)C(=O)[C@H](Cc2ccc(C)cc2)N2CC/C=C\C[C@@H](C2=O)N(C)C(=O)CN(C)C1=O [PP1868] | 10.7 | A (a compound having 10 or more and less than 20 is denoted as A) | B (a compound having 3 or more and less than 10 is denoted as B) | –
CC[C@H](C)[C@@H]1NC(=O)[C@H](C2CC2)N(C)C(=O)C[C@@H](C(=O)N(C)C)N(C)C(=O)[C@H](C2CCCC2)N(C)C(=O)C2(CCCC2)N(C)C(=O)[C@@H]2CCCN2C(=O)[C@H](CCc2cc(F)c(C(F)(F)F)c(F)c2)NC(=O)CN(C)C(=O)[C@H](Cc2ccc(C)cc2)N2CC/C=C\C[C@@H](C2=O)N(C)C(=O)CN(C)C1=O [PP1809] | 22.4 | A (a compound having 10 or more and less than 20 is denoted as A) | B (a compound having 3 or more and less than 10 is denoted as B) | –
CC[C@H](C)[C@@H]1NC(=O)[C@H](CC(C)C)N(C)C(=O)C[C@@H](C(=O)N(C)CC)N(C)C(=O)[C@H](C2CCCC2)N(C)C(=O)C2(CC(C)(C)C2)NC(=O)[C@@H]2C[C@@H](C)CN2C(=O)[C@H](CCc2ccc(C(F)(F)F)c(OC)c2)NC(=O)CN(C)C(=O)[C@H](Cc2ccc(C)cc2)N2CC/C=C\C[C@@H](C2=O)N(C)C(=O)CN(C)C1=O [PP1909] | 15.3 | A (a compound having 10 or more and less than 20 is denoted as A) | B (a compound having 3 or more and less than 10 is denoted as B) | –
CCCN1C(=O)[C@@H]2CCN2C(=O)[C@H](C)N(C)C(=O)[C@H]([C@@H](C)CC)NC(=O)[C@H](CC(C)C)N(C)C(=O)C[C@@H](C(=O)N2CCOCC2)N(C)C(=O)[C@H](C2CCCC2)N(C)C(=O)C2(CCCC2)NC(=O)[C@@H]2CCCN2C(=O)[C@H](CCc2ccc(C(F)(F)F)c(Cl)c2)NC(=O)CN(C)C(=O)[C@@H]1C1CCCC1 [PP0054] ([NMeL]I[NMeA][Aze][X5][Sar][hPhe(3-Cl-4-CF3)]P[Ac5c][NMeGly(cPent)][NMeD]-Morpholide; lactam N-11) | – | – | – | NRAS/KRAS (ratio of KD for GDP-bound NRAS wild-type to KD for KRAS) [1]: C (A compound having a KD ratio of 0.1 or more and less than 3 is denoted as C); HRAS/KRAS (ratio of KD for GDP-bound HRAS wild-type to KD for KRAS) [2]: C (A compound having a KD ratio of 0.1 or more and less than 3 is denoted as C); IC50 [3, 4]: 82 nM
CC[C@H](C)[C@@H]1NC(=O)[C@H](CC(C)C)N(C)C(=O)C[C@@H](C(=O)N(C)C)N(C)C(=O)[C@H](C2CCCC2)N(C)C(=O)C2(CC(C)(C)C2)NC(=O)[C@@H]2C[C@H](C)CN2C(=O)[C@H](CCc2ccc(C(F)(F)F)c(OC)c2)NC(=O)CN(C)C(=O)[C@H](Cc2ccc(C)cc2)N2CC/C=C\C[C@@H](C2=O)N(C)C(=O)CN(C)C1=O [PP1905] | 6.7 | A (a compound having 10 or more and less than 20 is denoted as A) | A (a compound having 10 or more and less than 20 is denoted as A) | –
CC[C@H](C)[C@@H]1NC(=O)[C@H](CC(C)C)N(C)C(=O)C[C@@H](C(=O)N(C)C)N(C)C(=O)[C@H](C2CCCC2)N(C)C(=O)C2(CCCC2)NC(=O)C2CCCN2C(=O)[C@H](CCc2ccc(C(F)(F)F)c(Cl)c2)NC(=O)CN(C)C(=O)[C@H](Cc2ccc(C(F)(F)F)cc2)N2CC/C=C\COC[C@@H](C2=O)N(C)C(=O)CN(C)C1=O (stereo partly drawn) [PP0622] | 330 | – | – | NRAS/KRAS (ratio of KD value with respect to GDP-bound NRAS wild-type protein to KD value with respect to KRAS) [1]: B (a compound having 3 or more and less than 10 is denoted as B); HRAS/KRAS (ratio of KD value with respect to GDP-bound HRAS wild-type protein to KD value with respect to KRAS) [2]: B (a compound having 3 or more and less than 10 is denoted as B)
CCO[C@@H]1C[C@H]2C(=O)NC3(CC(C)(C)C3)C(=O)N(C)[C@@H](C3CCCC3)C(=O)N(C)[C@H](C(=O)N(C)CC)CC(=O)N(C)[C@@H](CC3CC3)C(=O)N[C@@H]([C@@H](C)CC)C(=O)N(C)CC(=O)N(C)[C@H]3C/C=C\CCN(C3=O)[C@@H](Cc3ccc(C(F)(F)F)cc3)C(=O)N(C)CC(=O)N[C@@H](CCc3ccc(C(F)(F)F)c(OC)c3)C(=O)N2C1 [PP1678] | 5.6 | A (a compound having 10 or more and less than 20 is denoted as A) | B (a compound having 3 or more and less than 10 is denoted as B) | –
CC[C@H](C)[C@@H]1NC(=O)[C@H](CC(C)C)N(C)C(=O)C[C@@H](C(=O)N2CCOCC2)N(C)C(=O)[C@H](C2CCCC2)N(C)C(=O)C2(CCCC2)NC(=O)[C@@H]2CCCN2C(=O)[C@H](CCc2ccc(C(F)(F)F)c(Cl)c2)NC(=O)CN(C)C(=O)[C@H](Cc2ccc(C(F)(F)F)cc2)N(CCC(C)(C)C)C(=O)CN(C)C(=O)CN(C)C1=O [PP0127] ([NMeL]I[Sar][Sar][X6][Sar][hPhe(3-Cl-4-CF3)]P[Ac5c][NMeGly(cPent)][NMeD]-Morpholide; lactam N-11) | 25.3 | – | – | NRAS/KRAS (ratio of KD for GDP-bound NRAS wild-type to KD for KRAS) [1]: C (A compound having a KD ratio of 0.1 or more and less than 3 is denoted as C); HRAS/KRAS (ratio of KD for GDP-bound HRAS wild-type to KD for KRAS) [2]: C (A compound having a KD ratio of 0.1 or more and less than 3 is denoted as C)
CCC(CC)[C@H]1C(=O)N(C)[C@H](C(=O)N2CCCCC2)CC(=O)N(C)[C@H]2CCC/C=C/c3ccc(cc3)C[C@@H](C(=O)N(C)CC(=O)N[C@@H](CCc3ccc(Cl)c(Cl)c3)C(=O)N3CCC[C@H]3C(=O)NC3(CC(C)(C)C3)C(=O)N1C)N1CC/C=C\C[C@@H](C1=O)N(C)C(=O)CN(C)C(=O)[C@H]([C@@H](C)CC)NC2=O [PP3055] | – | – | – | NRAS/KRAS (ratio of KD value with respect to GDP-bound NRAS wild-type protein to KD value with respect to KRAS) ([1]; GDP-bound wild-type proteins): AA (a compound having 20 or more is denoted as AA); HRAS/KRAS (ratio of KD value with respect to GDP-bound HRAS wild-type protein to KD value with respect to KRAS) ([2]; GDP-bound wild-type proteins): A (a compound having 10 or more and less than 20 is denoted as A); IC50 [3, 4]: 69.2 nM
CC[C@H](C)[C@@H]1NC(=O)[C@H](CC(C)C)N(C)C(=O)C[C@@H](C)N(C)C(=O)[C@H](C2CCCC2)N(C)C(=O)C2(CCC2)NC(=O)[C@@H]2CCCN2C(=O)[C@H](CCc2cc(F)c(C(F)(F)F)c(F)c2)NC(=O)CN(C)C(=O)[C@H](Cc2ccc(C(F)(F)F)cc2)N2CC/C=C\C[C@@H](C2=O)N(C)C(=O)CN(C)C1=O [PP1099] | 68.1 | – | – | NRAS/KRAS (ratio of KD value with respect to NRAS to KD value with respect to KRAS) ([1]; KD ratio): B (a compound having 3 or more and less than 10 is denoted as B); HRAS/KRAS (ratio of KD value with respect to HRAS to KD value with respect to KRAS) ([2]; KD ratio): A (a compound having 10 or more and less than 20 is denoted as A)
